Experimental data taken from PMC10866072, “Design, synthesis, molecular modelling and biological evaluation of novel 6-amino-5-cyano-2-thiopyrimidine derivatives as potent anticancer agents against leukemia and apoptotic inducers” (Journal of Enzyme Inhibition and Medicinal Chemistry, 2024).

Legend:
KM12 = format: cell-based; details: one dose 10^-5 M, 48 h
UACC-62 = format: cell-based; details: one dose 10^-5 M, 48 h
SW-620 = format: cell-based; details: one dose 10^-5 M, 48 h
LOX IMVI = format: cell-based; details: one dose 10^-5 M, 48 h
UACC-257 = format: cell-based; details: one dose 10^-5 M, 48 h
PC-3 = format: cell-based; details: one dose 10^-5 M, 48 h
SK-MEL-5 = format: cell-based; details: one dose 10^-5 M, 48 h
MALME-3M = format: cell-based; details: one dose 10^-5 M, 48 h
M14 = format: cell-based; details: one dose 10^-5 M, 48 h
HOP-92 = format: cell-based; details: one dose 10^-5 M, 48 h
HOP-62 = format: cell-based; details: one dose 10^-5 M, 48 h
MDA-MB-231/ATCC = format: cell-based; details: one dose 10^-5 M, 48 h
[1] = system: full NCI 60 cell lines panel
SK-OV-3 = format: cell-based; details: one dose 10^-5 M, 48 h
A498 = format: cell-based; details: one dose 10^-5 M, 48 h
CAKI-1 = format: cell-based; details: one dose 10^-5 M, 48 h
COLO 205 = format: cell-based; details: one dose 10^-5 M, 48 h
SF-295 = format: cell-based; details: one dose 10^-5 M, 48 h
HS 578T = format: cell-based; details: one dose 10^-5 M, 48 h; HS 578T
OVCAR-4 = format: cell-based; details: one dose 10^-5 M, 48 h
HCT-15 = format: cell-based; details: one dose 10^-5 M, 48 h
HCT-116 = format: cell-based; details: one dose 10^-5 M, 48 h
NCI-H226 = format: cell-based; details: one dose 10^-5 M, 48 h
SK-MEL-2 = format: cell-based; details: one dose 10^-5 M, 48 h
IGROV1 = format: cell-based; details: one dose 10^-5 M, 48 h
CCRF-CEM = format: cell-based; details: one dose 10^-5 M, 48 h
BT-549 = format: cell-based; details: one dose 10^-5 M, 48 h
OVCAR-8 = format: cell-based; details: one dose 10^-5 M, 48 h
RXF 393 = format: cell-based; details: one dose 10^-5 M, 48 h
HL-60(TB) = format: cell-based; details: one dose 10^-5 M, 48 h
OVCAR-5 = format: cell-based; details: one dose 10^-5 M, 48 h
NCI-H23 = format: cell-based; details: one dose 10^-5 M, 48 h
EKVX = format: cell-based; details: one dose 10^-5 M, 48 h
MOLT-4 = format: cell-based; details: one dose 10^-5 M, 48 h
DU-145 = format: cell-based; details: one dose 10^-5 M, 48 h
A549/ATCC = format: cell-based; details: one dose 10^-5 M, 48 h
K-562 = format: cell-based; details: one dose 10^-5 M, 48 h
MCF7 = format: cell-based; details: one dose 10^-5 M, 48 h
MDA-MB-435 = format: cell-based; details: one dose 10^-5 M, 48 h
SK-MEL-28 = format: cell-based; details: one dose 10^-5 M, 48 h
SN12C = format: cell-based, human; details: one dose 10^-5 M, 48 h
TK-10 = format: cell-based; details: one dose 10^-5 M, 48 h
ACHN = format: cell-based; details: one dose 10^-5 M, 48 h
NCI-H522 = format: cell-based; details: one dose 10^-5 M, 48 h
U251 = format: cell-based; details: one dose 10^-5 M, 48 h
HCC-2998 = format: cell-based; details: one dose 10^-5 M, 48 h
786-0 = format: cell-based; details: one dose 10^-5 M, 48 h
NCI/ADR-RES = format: cell-based; details: one dose 10^-5 M, 48 h
SR = format: cell-based; details: one dose 10^-5 M, 48 h
RPMI-8226 = format: cell-based; details: one dose 10^-5 M, 48 h
SF-268 = format: cell-based; details: one dose 10^-5 M, 48 h
SF-539 = format: cell-based; details: one dose 10^-5 M, 48 h
NCI-H460 = format: cell-based; details: one dose 10^-5 M, 48 h
HT29 = format: cell-based; details: one dose 10^-5 M, 48 h
UO-31 = format: cell-based; details: one dose 10^-5 M, 48 h
T-47D = format: cell-based; details: one dose 10^-5 M, 48 h
SNB-19 = format: cell-based; details: one dose 10^-5 M, 48 h
OVCAR-3 = format: cell-based; details: one dose 10^-5 M, 48 h
MDA-MB-468 = format: cell-based; details: one dose 10^-5 M, 48 h

4-Amino-6–(2,4-dichlorophenyl)-2-mercaptopyrimidine-5-carboximidohydrazide [Compound 2c]
% growth (KM12): 100.35%
% growth (UACC-62): 84.96%
% growth (SW-620): 87.86%
% growth (LOX IMVI): 86.57%
% growth (UACC-257): 102.94%
% growth (PC-3): 77.58%
% growth (SK-MEL-5): 97.76%
% growth (MALME-3M): 94.17%
% growth (M14): 95.64%
% growth (HOP-92): 71.67%
% growth (HOP-62): 95.11%
% growth (MDA-MB-231/ATCC): 77.09%
activity on all 60 cancer cell lines tested (in words) ([1]; one dose): weak activity
Mean % growth ([1]; one dose 10^-5 M, 48 h, mean over all cell lines): 90.71%
% growth (SK-OV-3): 94.00%
% growth (A498): 105.32%
% growth (CAKI-1): 83.79%
% growth (COLO 205): 100.56%
% growth (SF-295): 93.63%
% growth (HS 578T): 99.16%
% growth (OVCAR-4): 82.22%
% growth (HCT-15): 92.01%
% growth (HCT-116): 85.00%
% growth (NCI-H226): 90.50%
% growth (SK-MEL-2): 95.39%
% growth (IGROV1): 104.68%
% growth (CCRF-CEM): 75.32%
% growth (BT-549): 81.84%
% growth (OVCAR-8): 94.00%
% growth (RXF 393): 94.62%
% growth (HL-60(TB)): 57.91%
% growth (OVCAR-5): 98.09%
% growth (NCI-H23): 95.68%
% growth (EKVX): 83.88%
% growth (MOLT-4): 94.43%
% growth (DU-145): 107.65%
% growth (A549/ATCC): 89.50%
% growth (K-562): 91.24%
% growth (MCF7): 79.62%
% growth (MDA-MB-435): 96.41%
% growth (SK-MEL-28): 109.76%
% growth (SN12C): 91.26%
% growth (TK-10): 111.85%
% growth (ACHN): 76.09%
% growth (NCI-H522): 68.80%
% growth (U251): 103.26%
% growth (HCC-2998): 108.77%
% growth (786-0): 90.40%
% growth (NCI/ADR-RES): 103.23%
% growth (SR): 69.30%
% growth (RPMI-8226): 87.93%
% growth (SF-268): 104.49%
% growth (SF-539): 85.28%
% growth (NCI-H460): 89.85%
% growth (HT29): 89.84%
% growth (UO-31): 71.44%
% growth (T-47D): 73.88%
% growth (SNB-19): 86.22%
% growth (OVCAR-3): 104.96%
% growth (MDA-MB-468): 90.16%
